Laboratory results reported in patent publication US20090053168A1, “TREATMENTS OF B-CELL PROLIFERATIVE DISORDERS” (priority 2007, published 2009).
Read-outs that look alike come from different tables or passages of the source.

Columns and labels:
[1] = system: GA-10 (Burkitt's lymphoma) cells; test: Anti-proliferation assay (ATPLite, 72 h), GA-10; assay type: cell-based; details: x dexamethasone
MM.1S cells [2] = test: Anti-proliferation assay (ATPLite, 72 h), MM.1S; details: for IC50: read-out: IC50 (no IL-6); for activity and synergy in antiproliferation assays: RPMI-8226, H929, MM.1S and MM.1R MM cell lines; for percent inhibition of cell proliferation: DEX 0 nM; for percent inhibition of cell proliferation / synergy score: MM.1S; for synergy score: in combination with CGS-21680
[3] = system: Farage (non-Hodgkin's B cell lymphoma) cells; test: Anti-proliferation assay (ATPLite, 72 h), Farage; assay type: cell-based; details: x dexamethasone
MM.1S cells [4] = system: MM.1S cells
RPMI-8226 cells = test: Anti-proliferation assay (ATPLite, 72 h), RPMI-8226; assay type: cell-based; details: combination with dexamethasone; Loewe-based Synergy Score; 72 h
H929 cells = test: Anti-proliferation assay (ATPLite, 72 h), H929; assay type: cell-based; details: combination with dexamethasone; Loewe-based Synergy Score; 72 h
[5] = system: mantle cell lymphoma cell line JVM-13; test: Anti-proliferation assay (ATPLite, 72 h), JVM-13; assay type: cell-based, human
Experimental: (§1) All of the cell lines were cultured in RPMI-1640 media supplemented with 10% FBS except OCI Ly10 cells (IMDM media supplemented with 20% human serum). The ANBL-6 cell line culture media also contained 10 ng/ml IL-6. MM.1S, MM.1R, SU-DHL6, Karpas 422, and OCI ly10 cells were provided by the Dana Farber Cancer Institute. ANBL-6 cells were provided by Bob Orlowsli (M.D. Anderson Cancer Research Center). H929, RPMI-8226, GA-10, Farage, Mino, JVM-13, Pfeiffer, Toledo, and Kusami-1 cells were from ATCC (Cat #'s CCL-155, CRL-9068, CRL-2392 CRL-2630, CRL-3000, CRL-3003, CRL-2632, CRL-2631, and CRL-2724 respectively). MOLP-8, OPM2, EJM, and KSM-12-PE cells were from DSMZ.
(§2) Compounds were prepared in DMSO at 1000× the highest desired concentration. Master plates were generated consisting of serially diluted compounds in 2- or 3-fold dilutions in 384-well format. For single agent dose response curves, the master plates consisted of 9 individual compounds at 12 concentrations in 2- or 3-fold dilutions. For combination matrices, master plates consisted of individual compounds at 6 or 9 concentrations at 2- or 3-fold dilutions.
(§3) The average untreated well value (avg. untreated wells) is the arithmetic mean of 40 wells from the same assay plate treated with vehicle alone. Negative inhibition values result from local variations in treated wells as compared to untreated wells.
(§4) The uncertainty of each fitted parameter was estimated from the range over which the change in reduced chi-squared was less than one, or less than minimum reduced chi-squared if that minimum exceeded one, to allow for underestimated σI errors.
(§5) Single agent curve data were used to define a dilution series for each compound to, be used for combination screening in a 6×6 matrix format. […] For compounds with no detectable single agent activity, a dilution factor of 4 was used, starting from the highest achievable concentration.
(§6) The Loewe additivity model was used to quantify combination effects. Combinations were ranked initially by Additivity Excess Volume, which is defined as ADD Volume=ΣCX, CY(Idata−ILoewe). where ILoewe(CX,CY) is the inhibition that satisfies (CX/ECX)+(CY/ECY)=1, and ECX,Y are the effective concentrations at ILoewe for the single agent curves. A “Synergy Score” was also used, where the Synergy Score S=log fX log fY ΣIdata (Idata−ILoewe), summed over all non-single-agent concentration pairs, and where log fX,Y is the natural logarithm of the dilution factors used for each single agent.

[6] = system: mantle cell lymphoma cell line Mino; test: Anti-proliferation assay (ATPLite, 72 h), Mino; assay type: cell-based, human
Experimental: as §1, §2, §3, §4, §5, §6

OPM2 cells = test: Anti-proliferation assay (ATPLite, 72 h), OPM2; assay type: cell-based, human; details: for synergy score: in combination with CGS-21680, OPM-8
MOLP-8 cells = test: Anti-proliferation assay (ATPLite, 72 h), MOLP-8; assay type: cell-based; details: in combination with CGS-21680
KSM-12-PE cells = test: Anti-proliferation assay (ATPLite, 72 h), KSM-12-PE; assay type: cell-based; details: in combination with CGS-21680; KSM-12-PE
ANBL-6 cells = test: Anti-proliferation assay (ATPLite, 72 h), ANBL-6; assay type: cell-based; details: in combination with CGS-21680
EJM cells = test: Anti-proliferation assay (ATPLite, 72 h), EJM; assay type: cell-based; details: in combination with CGS-21680
[7] = Homo sapiens, MM1.S, read-out: percent inhibition of cell proliferation

Compound: NCCNC(=O)Cc1ccc(NC(=O)Cc2ccc(Nc3ncnc4c3ncn4[C@@H]3O[C@H](CO)[C@@H](O)[C@H]3O)cc2)cc1 [ADAC, N-(4-(2-((4-(2-((2-aminoethyl)amino)-2-oxoethyl)phenyl)amino)-2-oxoethyl)phenyl)-Adenosine]
- synergy score [1]: 2.43
- IC50 (MM.1S cells [2]; Homo sapiens, MM1.S): 623 nM
- inhibition at 1.17 µM (MM.1S cells [2]; [7]): 80%
- inhibition at 3.51 µM (MM.1S cells [2]; [7]): 75%
- inhibition at 10.5 µM (MM.1S cells [2]; [7]): 82%
- inhibition at 31.6 µM (MM.1S cells [2]; [7]): 82%
- activity and synergy in antiproliferation assays (MM.1S cells [2]): active and synergistic
- synergy score [3]: 2.28

Compound: CNC(=O)[C@H]1O[C@@H](n2cnc3c(NCc4cccc(I)c4)nc(Cl)nc32)[C@H](O)[C@@H]1O [Chloro-IB-MECA, 2-chloro-N^6-(3-iodobenzyl)-5′-N-methylcarboxamidoadenosine]
- Percent inhibition of cell growth by Chloro-IB-MECA (MM.1S cells [4]; Cl-IB-MECA 0.19 μM, 78 nM SCH58261): 5.2%
- Percent inhibition of cell growth by Chloro-IB-MECA (MM.1S cells [4]; Cl-IB-MECA 0.19 μM, 87 nM MRS1523): 19%
- Percent inhibition of cell growth by Chloro-IB-MECA (MM.1S cells [4]; Cl-IB-MECA 0.19 μM, 89 nM DPCPX): 7.4%
- Percent inhibition of cell growth by Chloro-IB-MECA (MM.1S cells [4]; Cl-IB-MECA 0.19 μM, 89 nM MRS1754): 25%
- Percent inhibition of cell growth by Chloro-IB-MECA (MM.1S cells [4]; Cl-IB-MECA 0.19 μM, 150 nM SCH58261): −3.8%
- Percent inhibition of cell growth by Chloro-IB-MECA (MM.1S cells [4]; Cl-IB-MECA 0.19 μM, 170 nM MRS1523): 26%
- Percent inhibition of cell growth by Chloro-IB-MECA (MM.1S cells [4]; Cl-IB-MECA 0.19 μM, 174 nM DPCPX): 12%
- Percent inhibition of cell growth by Chloro-IB-MECA (MM.1S cells [4]; Cl-IB-MECA 0.19 μM, 175 nM MRS1754): 21%
- Percent inhibition of cell growth by Chloro-IB-MECA (MM.1S cells [4]; Cl-IB-MECA 0.19 μM, no antagonist): 20%
- Percent inhibition of cell growth by Chloro-IB-MECA (MM.1S cells [4]; Cl-IB-MECA 1.5 μM, 78 nM SCH58261): 8.1%
- Percent inhibition of cell growth by Chloro-IB-MECA (MM.1S cells [4]; Cl-IB-MECA 1.5 μM, 87 nM MRS1523): 54%
- Percent inhibition of cell growth by Chloro-IB-MECA (MM.1S cells [4]; Cl-IB-MECA 1.5 μM, 89 nM DPCPX): 47%
- Percent inhibition of cell growth by Chloro-IB-MECA (MM.1S cells [4]; Cl-IB-MECA 1.5 μM, 89 nM MRS1754): 50%
- Percent inhibition of cell growth by Chloro-IB-MECA (MM.1S cells [4]; Cl-IB-MECA 1.5 μM, 150 nM SCH58261): 4.3%
- Percent inhibition of cell growth by Chloro-IB-MECA (MM.1S cells [4]; Cl-IB-MECA 1.5 μM, 170 nM MRS1523): 61%
- Percent inhibition of cell growth by Chloro-IB-MECA (MM.1S cells [4]; Cl-IB-MECA 1.5 μM, 174 nM DPCPX): 46%
- Percent inhibition of cell growth by Chloro-IB-MECA (MM.1S cells [4]; Cl-IB-MECA 1.5 μM, 175 nM MRS1754): 45%
- Percent inhibition of cell growth by Chloro-IB-MECA (MM.1S cells [4]; Cl-IB-MECA 1.5 μM, no antagonist): 61%
- Percent inhibition of cell growth by Chloro-IB-MECA (MM.1S cells [4]; Cl-IB-MECA 3.1 μM, 78 nM SCH58261): 28%
- Percent inhibition of cell growth by Chloro-IB-MECA (MM.1S cells [4]; Cl-IB-MECA 3.1 μM, 87 nM MRS1523): 69%
- Percent inhibition of cell growth by Chloro-IB-MECA (MM.1S cells [4]; Cl-IB-MECA 3.1 μM, 89 nM DPCPX): 64%
- Percent inhibition of cell growth by Chloro-IB-MECA (MM.1S cells [4]; Cl-IB-MECA 3.1 μM, 89 nM MRS1754): 71%
- Percent inhibition of cell growth by Chloro-IB-MECA (MM.1S cells [4]; Cl-IB-MECA 3.1 μM, 150 nM SCH58261): 16%
- Percent inhibition of cell growth by Chloro-IB-MECA (MM.1S cells [4]; Cl-IB-MECA 3.1 μM, 170 nM MRS1523): 74%
- Percent inhibition of cell growth by Chloro-IB-MECA (MM.1S cells [4]; Cl-IB-MECA 3.1 μM, 174 nM DPCPX): 60%
- Percent inhibition of cell growth by Chloro-IB-MECA (MM.1S cells [4]; Cl-IB-MECA 3.1 μM, 175 nM MRS1754): 72%
- Percent inhibition of cell growth by Chloro-IB-MECA (MM.1S cells [4]; Cl-IB-MECA 3.1 μM, no antagonist): 70%
- percent inhibition of cell proliferation (MM.1S cells [2]; Cl-IB-MECA 0.352 nM, 72 h): 16%
- percent inhibition of cell proliferation (MM.1S cells [2]; Cl-IB-MECA 1.06 nM, 72 h): 5.9%
- percent inhibition of cell proliferation (MM.1S cells [2]; Cl-IB-MECA 3.16 nM, 72 h): 6.3%
- percent inhibition of cell proliferation (MM.1S cells [2]; Cl-IB-MECA 9.49 nM, 72 h): 9.1%
- percent inhibition of cell proliferation (MM.1S cells [2]; Cl-IB-MECA 28.5 nM, 72 h): −0.6%
- percent inhibition of cell proliferation (MM.1S cells [2]; Cl-IB-MECA 85.4 nM, 72 h): 6.3%
- percent inhibition of cell proliferation (MM.1S cells [2]; Cl-IB-MECA 256 nM, 72 h): 27%
- percent inhibition of cell proliferation (MM.1S cells [2]; Cl-IB-MECA 769 nM, 72 h): 71%
- IC50 (MM.1S cells [2]; Homo sapiens, MM1.S): 838 nM
- activity and synergy in antiproliferation assays (MM.1S cells [2]): active and synergistic
- Synergy score with dexamethasone, MM.1S (MM.1S cells [2]; combination with dexamethasone, Loewe-based Synergy Score, 72 h): 8.37
- Synergy score with dexamethasone, RPMI-8226 (RPMI-8226 cells): 5.61
- synergy score [3]: 3.17
- Synergy score with dexamethasone, H929 (H929 cells): 5.29

Compound: COC1=C2C[C@@H](C)C[C@H](OC)[C@H](O)[C@@H](C)/C=C(\C)[C@H](OC(N)=O)[C@@H](OC)/C=C\C=C(/C)C(=O)NC(=CC1=O)C2=O [Geldanomycin]
- percent inhibition of cell proliferation ([5]; Geldanomycin 0.0064 μM alone): −5.8%
- percent inhibition of cell proliferation ([5]; Geldanomycin 0.019 μM alone): −7.8%
- percent inhibition of cell proliferation ([5]; Geldanomycin 0.057 μM alone): 7.6%
- percent inhibition of cell proliferation ([5]; Geldanomycin 0.17 μM alone): 12%
- percent inhibition of cell proliferation ([5]; Geldanomycin 0.52 μM alone): 19%
- percent inhibition of cell proliferation ([6]; Geldanomycin 0.0064 μM alone): 4.7%
- percent inhibition of cell proliferation ([6]; Geldanomycin 0.019 μM alone): 4.3%
- percent inhibition of cell proliferation ([6]; Geldanomycin 0.057 μM alone): 6.7%
- percent inhibition of cell proliferation ([6]; Geldanomycin 0.17 μM alone): 14%
- percent inhibition of cell proliferation ([6]; Geldanomycin 0.52 μM alone): 27%

Compound: CNC(=O)[C@H]1O[C@@H](n2cnc3c(NCc4cccc(I)c4)ncnc32)[C@H](O)[C@@H]1O [IB-MECA, N^6-(3-iodobenzyl)-5′-N-methylcarboxamidoadenosine]
- synergy score [1]: 2.23
- activity and synergy in antiproliferation assays (MM.1S cells [2]): active and synergistic
- synergy score [3]: 2.91

Compound: CC(/C=C/C(=O)NO)=C\[C@@H](C)C(=O)c1ccc(N(C)C)cc1 [Trichostatin A]
- percent inhibition of cell proliferation ([6]; Trichostatin A 0.0063 μM alone): 24%
- percent inhibition of cell proliferation ([6]; Trichostatin A 0.025 μM alone): 78%
- percent inhibition of cell proliferation ([6]; Trichostatin A 0.05 μM alone): 100%
- percent inhibition of cell proliferation ([6]; Trichostatin A 0.1 μM alone): 100%
- percent inhibition of cell proliferation (OPM2 cells; Trichostatin A 0.0063 μM alone): 13%
- percent inhibition of cell proliferation (OPM2 cells; Trichostatin A 0.025 μM alone): 48%
- percent inhibition of cell proliferation (OPM2 cells; Trichostatin A 0.05 μM alone): 76%
- percent inhibition of cell proliferation (OPM2 cells; Trichostatin A 0.1 μM alone): 99%

Compound: COc1cccc2c1C(=O)c1c(O)c3c(c(O)c1C2=O)C[C@@](O)(C(=O)CO)C[C@@H]3O[C@H]1C[C@H](N)[C@H](O)[C@H](C)O1 [doxorubicin]
- synergy score (MOLP-8 cells): 1.16
- synergy score (KSM-12-PE cells): 0.81
- synergy score (ANBL-6 cells): 2.54
- synergy score (MM.1S cells [2]): 1.65
- synergy score (OPM2 cells): 0.46
- synergy score (EJM cells): 1.21

Compound: Nc1cccc2c1CN(C1CCC(=O)NC1=O)C2=O (stereo not shown) [lenalidomide]
- synergy score (MOLP-8 cells): 1.65
- synergy score (KSM-12-PE cells): 0.83
- synergy score (ANBL-6 cells): 1.45
- synergy score (MM.1S cells [2]): 4.87
- synergy score (OPM2 cells): 1.36
- synergy score (EJM cells): 0.32
